Earlier results, collected in patent US9585959B2, “Robust controlled-release formulations” (CAMURUS AB, priority 2011, dated 2017).
Values belong to the molecule of their own block, whether it stands above or below them. *1 amine or outer side, *2 acyl side, *3 side chain or, on linkers, in order; H or OH if unused. Where a SMILES comes first, the peptide text is derived from it. Side-chain parts run from the residue outwards. [ ]: non-standard residue; d: D form. The star is where a group is joined. Ethylenediamine = C(CN[*:2])N[*:1]; Hyp = O=C(O)[C@@H]1C[C@@H](O)CN1; Phg = N[C@H](C(=O)O)c1ccccc1; CO = O=C([*:1])[*:2]; Bn = c1ccc(C*)cc1

Key:
[1] = in vivo
[2] = tested on: somatostatin receptor subtypes sstr1,2,3 and sstr5

Molecule: C[C@@H](O)[C@@H]1NC(=O)[C@H](CCCCN)NC(=O)[C@@H](Cc2c[nH]c3ccccc23)NC(=O)[C@H](Cc2ccccc2)NC(=O)[C@@H](NC(=O)[C@H](N)Cc2ccccc2)CSSC[C@@H](C(=O)N[C@H](CO)[C@@H](C)O)NC1=O [Octreotide, D-Phe-Cys-Phe-D-Trp-Lys-Thr-Cys-Thr-ol (2-7 disulphide bridge)]
Selectivity (SSTRs (SSTR1-SSTR5); for SSTR2 and SSTR5): high selectivity

Molecule: Ala-Gly-Cys-Lys-Asn-Phe-Phe-Trp-Lys-Thr-Phe-Thr-Ser-Cys [SST-14]
Biological half-life [1]: 1-3 minutes | Affinity of the five SSTRs (SSTRs (SSTR1-SSTR5); SSTR1-SSTR5): equally high affinity

Affinity [2]: high affinity
Molecule: NCCCC[C@@H]1NC(=O)[C@@H](Cc2c[nH]c3ccccc23)NC(=O)[C@H](c2ccccc2)NC(=O)[C@@H]2C[C@@H](OC(=O)NCCN)CN2C(=O)[C@H](Cc2ccccc2)NC(=O)[C@H](Cc2ccc(OCc3ccccc3)cc2)NC1=O [Pasireotide] (cyclo(F[Hyp]([CO-Ethylenediamine])[Phg][dW]KY(Bn)))
